One experiment concerns niacin receptor. The experiment in a line: Upregulation of GURC-modified niacin receptor (luciferase assay). As to conditions: FIG. 15A. The experiment is classed as cell-based.
A further experiment relates to β2 adrenergic receptor. The experiment in a line: Upregulation of GURC-modified β2 adrenergic receptor (luciferase assay). As to conditions: FIG. 15B. It counts as cell-based.
The subject of a further experiment is histamine receptor H3. The settings on record: FIG. 14.

Chain of histamine receptor H3 (as listed by the source): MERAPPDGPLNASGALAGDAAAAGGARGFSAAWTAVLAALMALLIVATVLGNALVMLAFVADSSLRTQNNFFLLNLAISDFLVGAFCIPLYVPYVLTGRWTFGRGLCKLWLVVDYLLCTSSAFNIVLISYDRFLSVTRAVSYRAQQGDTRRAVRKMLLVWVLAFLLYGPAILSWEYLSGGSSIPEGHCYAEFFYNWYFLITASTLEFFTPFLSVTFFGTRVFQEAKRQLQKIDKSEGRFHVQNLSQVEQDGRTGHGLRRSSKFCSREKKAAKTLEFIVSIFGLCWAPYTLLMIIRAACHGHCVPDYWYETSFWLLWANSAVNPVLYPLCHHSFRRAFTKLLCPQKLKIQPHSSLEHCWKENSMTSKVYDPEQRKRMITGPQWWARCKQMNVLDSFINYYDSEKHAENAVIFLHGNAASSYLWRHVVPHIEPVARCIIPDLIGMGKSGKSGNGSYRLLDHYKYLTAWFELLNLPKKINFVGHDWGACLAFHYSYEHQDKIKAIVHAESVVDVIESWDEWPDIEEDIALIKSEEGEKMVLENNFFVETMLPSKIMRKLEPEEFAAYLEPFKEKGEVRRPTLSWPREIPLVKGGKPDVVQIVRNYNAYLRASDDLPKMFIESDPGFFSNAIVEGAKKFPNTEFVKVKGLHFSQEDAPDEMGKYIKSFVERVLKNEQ

In the case of `COC(=O)c1cccnc1` [methyl nicotinate], in the experiment on niacin receptor, the “upregulation of the niacin receptor” value was “dose-dependent upregulation”. Further, the “upregulation of the β2 adrenergic receptor” value in the experiment with β2 adrenergic receptor was “lack of dose-dependent upregulation”.

On to `Nc1ncnc2c1ncn2[C@@H]1O[C@H](COP(=O)(O)OP(=O)(O)OC[C@@H]2O[C@H]([n+]3cccc(C(=O)[O-])c3)[C@@H](O)[C@H]2O)[C@@H](O)[C@H]1OP(=O)(O)O` [NAADP-β], for which the “upregulation of the niacin receptor” value with niacin receptor is “dose-dependent upregulation”. Further, in the experiment on β2 adrenergic receptor, the “upregulation of the β2 adrenergic receptor” value is on record as “lack of dose-dependent upregulation”.

Regarding Methyl histamine, in the experiment with histamine receptor H3, the “potency at histamine receptor H3” value is listed as “low potency”.

The record behind these values is US20080009551A1, “Methods and Compositions for Identifying Modulators of G Protein-Coupled Receptors” (Arena Pharmaceuticals, Inc., priority 2003, published 2008).
